Where two headings read alike, the source gives them in different places.
Tests used:
UGT1A9 [1] = target: T1, UGT1A9 (Homo sapiens, UniProt O60656); conditions: substrate inhibition model, propofol glucuronidation
T1 sequence (O60656 26-530): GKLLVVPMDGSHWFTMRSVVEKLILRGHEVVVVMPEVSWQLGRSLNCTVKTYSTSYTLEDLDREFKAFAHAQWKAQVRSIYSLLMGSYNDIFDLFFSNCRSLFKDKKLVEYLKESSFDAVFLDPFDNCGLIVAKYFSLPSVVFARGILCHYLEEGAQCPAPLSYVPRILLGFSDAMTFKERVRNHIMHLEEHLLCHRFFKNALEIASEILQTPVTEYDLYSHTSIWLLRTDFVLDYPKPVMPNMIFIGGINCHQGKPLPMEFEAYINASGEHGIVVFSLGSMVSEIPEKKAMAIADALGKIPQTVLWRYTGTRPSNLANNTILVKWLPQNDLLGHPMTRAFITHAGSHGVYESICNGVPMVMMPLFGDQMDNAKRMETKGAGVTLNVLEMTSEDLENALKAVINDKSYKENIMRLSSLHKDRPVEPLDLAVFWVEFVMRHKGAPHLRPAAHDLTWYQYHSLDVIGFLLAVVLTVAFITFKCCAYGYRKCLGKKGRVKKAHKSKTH

UGT2B7 = target: T2, UGT2B7 (Homo sapiens, UniProt P16662); conditions: data not shown
T2 sequence (P16662 24-529): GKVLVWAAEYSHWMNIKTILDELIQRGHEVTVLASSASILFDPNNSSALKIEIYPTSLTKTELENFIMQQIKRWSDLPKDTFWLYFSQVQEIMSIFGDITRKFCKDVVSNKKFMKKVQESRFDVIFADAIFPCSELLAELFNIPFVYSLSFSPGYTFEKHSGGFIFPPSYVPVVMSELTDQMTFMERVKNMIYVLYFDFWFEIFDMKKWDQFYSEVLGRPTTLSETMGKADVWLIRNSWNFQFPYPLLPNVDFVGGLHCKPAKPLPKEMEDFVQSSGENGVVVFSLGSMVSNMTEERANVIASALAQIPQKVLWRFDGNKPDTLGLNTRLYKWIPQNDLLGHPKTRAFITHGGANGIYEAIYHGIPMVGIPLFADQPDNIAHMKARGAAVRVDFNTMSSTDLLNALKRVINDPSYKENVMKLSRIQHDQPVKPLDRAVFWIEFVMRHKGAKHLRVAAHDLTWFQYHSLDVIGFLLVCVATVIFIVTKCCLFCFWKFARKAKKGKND

UGT1A9 [2] = target: T1, UGT1A9

## CC(C)c1cccc(C(C)C)c1O [propofol]
UGT1A9 [1]; human hepatocytes treated with UGT1A9 siRNA
  Ki: 448 ± 203 µM
UGT1A9 [1]; human hepatocytes treated with UGT2B7 siRNA
  Ki: 199 ± 88.9 µM
UGT1A9 [1]; human hepatocytes, OPTI Only
  Ki: 362 ± 31.3 µM
UGT1A9 [1]; human hepatocytes, TR Only
  Ki: 521 ± 46.3 µM

## propofol glucuronide
UGT2B7
  inhibition of UGT2B7-catalyzed morphine glucuronidation: No inhibition
UGT1A9 [2]
  UGT1A9 activity remained: greater than 60%
  inhibition of 2,6-dimethylphenol glucuronidation: only weak inhibition

Reference: publication PMC4059507 (Archives of biochemistry and biophysics, 2013)
